From publication PMC8871626, “UPLC-PDA-ESI-QTOF-MS/MS fingerprint of purified flavonoid enriched fraction of Bryophyllum pinnatum; antioxidant properties, anticholinesterase activity and in silico studies” (Pharmaceutical Biology, 2021) come the findings set out here.

Common to all, as to assay type: biochemical
Experiment [1] is described as follows: DPPH radical scavenging assay. The note with it: for DPPH radical IC50: 3.125–100 µg/mL, 30 min in the dark, absorbance 518 nm, triplicate; for IC50: IC50 values in µM presented for comparison. Here is the method: Based on the principle, when DPPH reacts with an antioxidant compound that can donate hydrogen, it is reduced. The change in colour from deep violet to golden/light yellow can be measured at 518 nm. Briefly, 1 mL of 0.3 mM of DPPH solution was added to 1 mL of each of the test solutions. […] The mixtures were vortexed thoroughly and allowed to stand at room temperature in the dark for 30 min, […]. The absorbance values were recorded at 518 nm, and converted into percentage antioxidant activity, using the formula below: Results were expressed as a percentage of inhibitions (100%). […] Each test was carried out in triplicates.
The % DPPH scavenging effect of the antioxidant was calculated as follows: (1) %DPPH scavenging effect=[A control – A sample/Acontrol]× 100
Background: DPPH is a stable violet radical that fades when it is reduced.

Experiment [2] concerns Fe2+-induced lipid peroxidation in rat brain homogenate. Description: Fe2+-induced lipid peroxidation (TBARS) assay in brain homogenate. The note with it: for Lipid peroxidation IC50: FeSO4, 37 °C 30 min, TBARS 532 nm; for IC50: IC50 values in µM presented for comparison, read-out: LP (IC50 in µM). Here is the method: Thiobarbituric acid reactive species (TBARS) assay was used to measure the lipid peroxide formed using brain tissue homogenates as lipid-rich media, as described by Ruberto et al. ([2000]) with slight modifications. […] Thereafter, 0.05 mL of FeSO4 was added and the mixture was incubated at 37 °C for 30 min. Then, 1.5 mL of acetic acid was added, followed by 1.5 mL of TBA in SDS. The resulting mixture was mixed and heated at 95 °C for 60 min. After cooling, 5 mL of butanol was added and the mixture was centrifuged at 3000 rpm for 10 min. The absorbance of the organic upper layer was measured at 532 nm and the percentage inhibition was calculated with the formula: (2) %inhibition=[A control – A sample/Acontrol]×100

Experiment [3] deals with T1, rat serum BuChE (Rattus norvegicus, UniProt Q9JKC1).
T1 construct: from tissue; host or cells: rat blood (serum)
T1 sequence (Q9JKC1 24-597): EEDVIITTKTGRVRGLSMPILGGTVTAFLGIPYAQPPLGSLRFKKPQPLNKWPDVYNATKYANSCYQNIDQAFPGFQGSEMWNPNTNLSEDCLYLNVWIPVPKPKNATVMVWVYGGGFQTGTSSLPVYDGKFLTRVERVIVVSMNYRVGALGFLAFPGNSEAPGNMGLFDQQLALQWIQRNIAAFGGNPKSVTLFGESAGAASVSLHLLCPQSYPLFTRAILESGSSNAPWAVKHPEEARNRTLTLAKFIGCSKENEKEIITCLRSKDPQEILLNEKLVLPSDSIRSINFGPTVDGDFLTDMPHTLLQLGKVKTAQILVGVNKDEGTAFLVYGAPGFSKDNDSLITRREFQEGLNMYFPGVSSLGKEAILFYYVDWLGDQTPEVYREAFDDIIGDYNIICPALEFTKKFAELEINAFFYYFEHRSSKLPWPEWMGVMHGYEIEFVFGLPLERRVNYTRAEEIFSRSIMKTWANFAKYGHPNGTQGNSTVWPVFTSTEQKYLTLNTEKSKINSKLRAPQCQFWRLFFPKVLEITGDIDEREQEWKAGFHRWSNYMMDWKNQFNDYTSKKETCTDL
The experiment in a line: BuChE inhibition, Ellman's colorimetric method. The following applies: BuChE IC50, rat blood enzyme, butyrylthiocholine iodide. In general terms: Ellman's reagent forms a yellow product with free thiols.
Description: Whole-brain tissue from adult male Wistar rat was used as a source of AChE enzyme and a lipid-rich media for lipid peroxidation assay while rat blood tissue was used as a source of BuChE enzyme.
For the enzyme source, the rat brains were homogenized in a homogenizer with 10 volumes of a homogenization buffer (10 mM Tris-HCl, pH 7.2) containing 1 M NaCl, 50 mM MgCl2 and1% Triton X-100 and centrifuged at 10,000 rpm for 30 min. The resulting supernatants were collected, and the solution of these supernatants was used as an enzyme source. The temperature was maintained at 4 °C throughout the excretion procedure. The rate of AChE hydrolysis was monitored spectrophotometrically. […] Absorbance at 405 nm was recorded immediately after adding Ellman’s reaction mixture (3.5 mL; 0.5 mM acetylthiocholine, 1 mM DTNB) in a 50 mM sodium phosphate buffer (pH 8.0) to the reaction mixture. Readings were repeated for 30 min to verify the reaction. […] The percentage of AChE inhibition was calculated using the following formula: (3) %Cholinesterase inhibition=[A control – A sample/Acontrol]×100
Assessment of BuChE inhibition was performed as described in Equation (3) except that the enzyme solution was (100 μL) acetylthiocholine iodide was replaced with butyrylthiocholine iodide. All other reagents and conditions remained the same.

Broadly, the IC50 is the concentration that inhibits the measured activity by half.

Take `O=C1O[C@H]([C@@H](O)CO)C(O)=C1O` [Ascorbic acid, ascorbic acid]: in experiment [1], the “DPPH radical IC50” value was 10.186 ± 0.14 µg/mL and half-maximal inhibition (IC50) was put at 57.8 ± 0.827 µM. In experiment [2], the “Lipid peroxidation IC50” value turned out to be 14.393 ± 0.54 µg/mL and the IC50 amounted to 81.72 ± 0.309 µM.
Take `O=c1c(O)c(-c2ccc(O)c(O)c2)oc2cc(O)cc(O)c12` [Quercetin]: the “DPPH radical IC50” value in experiment [1] was found to be 13.803 ± 0.34 µg/mL. The values for the IC50 in experiment [1], in experiment [2] and in experiment [3] were 45.7 ± 1.13 µM, 83.51 ± 0.654 µM and 80.5 µM, respectively. Besides, the “Lipid peroxidation IC50” value in experiment [2] was found to be 25.242 ± 1.97 µg/mL.
